What all share (type): cell-based
The subject of assay [1] is Human myeloid monocytic leukemia cell line (MV-4-11). Kind of assay: Inhibition of MV-4-11 cell proliferation (CellTiter luminescent viability). As to conditions: Homo sapiens, MV4-11, Table IA3, IRAK4 inhibitor-based, 96 hours; for inhibition at 0.01 µM: MV-4-11, 10 nM, read-out: Inhibition Rate at 10 nM (%); for inhibition at 0.5 µM: MV-4-11, 500 nM, read-out: Inhibition Rate at 500 nM (%). In outline:
(§1)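 Cells are seeded in 96-well plates, cultured at 37 °C, 5% CO2, and treated next day with 5-fold serial compound dilutions (stock series from 2000 μM; 0.5 μL into 100 μL medium). Viability is read by CellTiter-Meiluncell luminescence after the set exposure, and IC50 is taken from growth-inhibition curves.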

A short description of assay [2]: Inhibition of RPMI-8226 cell proliferation (CellTiter luminescent viability). As to conditions: Homo sapiens; Table IA4, IRAK4 inhibitor-based; RPMI-8226, 10 nM, 96 hours; read-out: Inhibition Rate at 10 nM (%). How it is done: (§2) The tumor cells used herein were cultured in a cell culture medium listed in table 3 at 37 °C in an incubator with 5% CO2. Prior to experimentation, all cell lines used were correctly identified by STR profiling, and tested negative for mycoplasma contamination using a mycoplasma detection kit through routine screenings.
(§3) The IC50 values of the compounds of the present disclosure (including the compounds in Table 1, Table 2, and Examples 1-468) were determined using the CellTiter-Meiluncell Luminescent Cell Viability Assay Kit from Dalian Meilun Biotech Co., Ltd. The detailed procedure is as follows: Tumor cells were seeded in 96-well cell culture plates at the densities specified in Table 4. On the following day, the test compounds of the present disclosure were subjected to serial dilution. The dilution can be performed according to one of the following two methods: • (1) The first dilution method: The test compounds of the present disclosure (including the compounds in Table 1, Table 2, and Examples 1-468) were subjected to 5-fold serial dilutions starting from a highest concentration of 2000 μM, resulting in a total of 9 concentrations from high to low (2000, 400, 80, 16, 3.2, 0.64, 0.128, 0.0256, 0.00512 μM). Subsequently, 0.5 μL of the test compound dilution was transferred into the 96-well plate containing the cells, with each well containing 100 μL of cell culture medium. […] Into the 96-well plate, the diluted test compounds and corresponding detection reagents were added, resulting in final test compound concentrations of 500 nM and 10 nM, respectively. The experimental procedure is described below using the diluted 2 μM test compound as an example.
(§4) 0.5 μL of the aforementioned diluted compound of the present disclosure (including the compounds in Table 1, Table 2, and Examples 1-468) was added to the seeded cells in 100 μL of medium, yielding a final test compound concentration of 10 nM. After the cells were treated with the compounds of the present disclosure for a specified period, the cell viability assay reagent was added to the culture medium according to the kit's instructions to determine cell viability. […] All controls were treated using the same procedure as the compounds of the present disclosure. The growth inhibition curves for the compounds of the present disclosure were plotted using Prism GraphPad software, and the IC50 values were calculated therefrom.

Assay [3] deals with Human B-Cell Lymphoma Cells (RPMI-8226). The assay is described as above. To be noted: Table IA4, IRAK4 inhibitor-based, RPMI-8226, 500 nM, 96 hours, read-out: Inhibition Rate at 500 nM (%). On the procedure:
as §2, §3, §4

Assay [4] deals with T1, IRAK4 (Homo sapiens, UniProt Q9NWZ3).
T1 construct: expression of target proteins in cells; endogenous in cells
T1 sequence (Q9NWZ3 1-460): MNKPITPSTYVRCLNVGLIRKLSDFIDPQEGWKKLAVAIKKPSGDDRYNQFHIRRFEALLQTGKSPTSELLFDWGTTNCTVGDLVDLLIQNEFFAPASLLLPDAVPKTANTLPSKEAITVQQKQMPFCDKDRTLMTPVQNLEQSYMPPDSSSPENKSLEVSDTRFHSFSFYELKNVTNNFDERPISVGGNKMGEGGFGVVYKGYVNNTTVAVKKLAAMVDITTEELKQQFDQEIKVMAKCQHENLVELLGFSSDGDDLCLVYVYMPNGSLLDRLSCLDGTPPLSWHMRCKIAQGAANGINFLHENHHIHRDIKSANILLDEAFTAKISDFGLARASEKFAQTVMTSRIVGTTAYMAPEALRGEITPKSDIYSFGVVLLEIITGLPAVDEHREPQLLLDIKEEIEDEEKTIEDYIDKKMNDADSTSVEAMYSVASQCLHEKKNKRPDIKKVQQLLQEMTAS
Kind of assay: Western blot degradation of IRAK4. To be noted: hPBMC Cell; 24 hours. The gist of the method:
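Immunoblot of drug-treated versus DMSO-treated cell lysates, with densitometric quantification. Values: DC50 (50% band loss, fitted) and loading-control-normalised % remaining or degradation.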
(In western blotting, separated proteins are transferred to a membrane and probed.)

Assay [5] concerns Human Multiple myeloma cell line (MM.1S). The experiment in a line: Inhibition of MM.1S cell proliferation (CellTiter luminescent viability). As to conditions: Homo sapiens, MM1.S, Table IA5, IRAK4 inhibitor-based, 96 hours. The gist of the method: as §1

`O=C1CCN(N2C(=O)c3ccc(N4CCC(N5CCC(CN6CCC(n7cc(NC(=O)c8cnn9ccc(N%10C[C@H]%11C[C@@H]%10CO%11)nc89)c(C(F)F)n7)CC6)CC5)CC4)cc3C2=O)C(=O)N1` [GT-05816, 5-((1R,4R)-2-oxa-5-azabicyclo[2.2.1]heptan-5-yl)-N-(3-(difluoromethyl)-1-(1-((1′-(2-(2,4-dioxotetrahydropyrimidin-1(2H)-yl)-1,3-dioxoisoindolin-5-yl)-[1,4′-bipiperidin]-4-yl)methyl)piperidin-4-yl)-1H-pyrazol-4-yl)pyrazolo[1,5-a]pyrimidine-3-carboxamide]: the inhibition – broadly, the relative decrease from the control value, in per cent – at 0.01 µM in assay [1] is -10 to -5%; in assay [2], 30 to 40%. Also, the inhibition at 0.5 µM in assay [1] was 50 to 60%; in assay [3], 15 to 20%. Moreover, the “Degradation of substrate protein IRAK4 (substrate protein remaining %)” value (“Degradation … (substrate protein remaining %)” below) in assay [4] was “A (0%≤substrate protein remaining %≤80%)”.
The corresponding values for `CC(C)(O)c1cc2nc(C3CCN(CC4CCN(c5cccc6c5C(=O)N(N5CCC(=O)NC5=O)C6=O)CC4)CC3)sc2cc1NC(=O)c1cccc(C(F)(F)F)n1` [GT-05818, N-(2-(1-((1-(2-(2,4-dioxotetrahydropyrimidin-1(2H)-yl)-1,3-dioxoisoindolin-4-yl)piperidin-4-yl)methyl)piperidin-4-yl)-5-(2-hydroxypropan-2-yl)benzo[d]thiazol-6-yl)-6-(trifluoromethyl) picolinamide] are 10 to 20%, 20 to 25%, 50 to 60%, 10 to 15% and “A (0%≤substrate protein remaining %≤80%)”.
For `CC(C)Nc1cc(-n2ccc3cc(C#N)cnc32)ncc1C(=O)NC1CCN(Cc2ccc3c(c2)CN(N2CCC(=O)NC2=O)C3=O)CC1` [GT-05319, 6-(5-cyano-1H-pyrrolo[2,3-b]pyridin-1-yl)-N-(1-((2-(2,4-dioxotetrahydropyrimidin-1(2H)-yl)-1-oxoisoindolin-5-yl)methyl)piperidin-4-yl)-4-((isopropyl)amino) nicotinamide], the inhibition at 0.01 µM in assay [5] (10 nM, read-out: Inhibition Rate at 10 nM (%)) was in the range of 30 to 40%; in assay [2], 30 to 40%. Also, the inhibition at 0.5 µM in assay [5] (500 nM, read-out: Inhibition Rate at 500 nM (%)) was in the range of 30 to 40%; in assay [3], 40 to 60%. In addition, in assay [4], the “Degradation … (substrate protein remaining %)” value is “A (0%≤substrate protein remaining %≤80%)”.
For `O=C1CCN(N2C(=O)c3cc(F)c(N4CCN(C[C@H]5CC[C@H](n6cc(NC(=O)c7cnn8ccc(N9C[C@H]%10C[C@@H]9CO%10)nc78)c(C(F)F)n6)CC5)CC4)cc3C2=O)C(=O)N1` [GT-05239, 5-((1R,4R)-2-oxa-5-azabicyclo[2.2.1]heptan-5-yl)-N-(3-(difluoromethyl)-1-((1r,4R)-4-((4-(2-(2,4-dioxotetrahydropyrimidin-1(2H)-yl)-6-fluoro-1,3-dioxoisoindolin-5-yl)piperazin-1-yl)methyl)cyclohexyl)-1H-pyrazol-4-yl)pyrazolo[1,5-a]pyrimidine-3-carboxamide], the inhibition at 0.01 µM in assay [2] lay in the range of 30 to 40%. Moreover, in assay [3], the inhibition at 0.5 µM lay within 20 to 25%. Also, the “Degradation … (substrate protein remaining %)” value in assay [4] is given as “A (0%≤substrate protein remaining %≤80%)”.
Turning to `CC(C)(O)c1cc2nc(C3CCN(CC4CCN(c5ccc6c(c5)C(=O)N(N5CCC(=O)NC5=O)C6=O)CC4)CC3)sc2cc1NC(=O)c1cccc(C(F)(F)F)n1` [GT-05819, N-(2-(1-((1-(2-(2,4-dioxotetrahydropyrimidin-1(2H)-yl)-1,3-dioxoisoindolin-5-yl)piperidin-4-yl)methyl)piperidin-4-yl)-5-(2-hydroxypropan-2-yl)benzo[d]thiazol-6-yl)-6-(trifluoromethyl) picolinamide], the inhibition at 0.01 µM in assay [2] lay in the range of 15 to 20%. Also, the inhibition at 0.5 µM in assay [3] lay in the range of 25 to 30%. Besides, the “Degradation … (substrate protein remaining %)” value in assay [4] was “A (0%≤substrate protein remaining %≤80%)”.
As to `COc1cc2nn([C@H]3CC[C@H](CN4C5CC4CN(c4ccc6c(c4)C(=O)N(N4CCC(=O)NC4=O)C6=O)C5)CC3)cc2cc1NC(=O)c1cccc(C(F)(F)F)n1` [GT-08653, N-(2-((1r,4r)-4-((3-(2-(2,4-dioxotetrahydropyrimidin-1(2H)-yl)-1,3-dioxoisoindolin-5-yl)-3,6-diazabicyclo[3.1.1]heptan-6-yl)methyl)cyclohexyl)-6-methoxy-2H-indazol-5-yl)-6-(trifluoromethyl) picolinamide], the inhibition at 0.01 µM in assay [2] was 15 to 20%. The inhibition at 0.5 µM in assay [3] was in the range of 25 to 30%. The “Degradation … (substrate protein remaining %)” value in assay [4] is “A (0%≤substrate protein remaining %≤80%)”.
On to `O=C1CCN(N2C(=O)c3ccc(N4CC5CCC(C4)N5C[C@H]4CC[C@H](n5cc(NC(=O)c6cnn7ccc(N8C[C@H]9C[C@@H]8CO9)nc67)c(C(F)F)n5)CC4)cc3C2=O)C(=O)N1` [GT-05825, 5-((1R,4R)-2-oxa-5-azabicyclo[2.2.1]heptan-5-yl)-N-(3-(difluoromethyl)-1-((1r,4R)-4-((3-(2-(2,4-dioxotetrahydropyrimidin-1(2H)-yl)-1,3-dioxoisoindolin-5-yl)-3,8-diazabicyclo[3.2.1]octan-8-yl)methyl)cyclohexyl)-1H-pyrazol-4-yl)pyrazolo[1,5-a]pyrimidine-3-carboxamide], for which, in assay [2], the inhibition at 0.01 µM is 15 to 20%. For the same compound, the inhibition at 0.5 µM in assay [3] lay in the range of 25 to 30%. Also, the “Degradation … (substrate protein remaining %)” value in assay [4] is on record as “A (0%≤substrate protein remaining %≤80%)”.
Take `Cc1cc(-c2nc(C(=O)Nc3cc4oc(N5CCN(CC6CCN(c7cccc8c7C(=O)N(N7CCC(=O)NC7=O)C8=O)CC6)CC5)nc4nc3N3CC[C@@H](O)C3)co2)ccn1` [GT-05806, (R)—N-(2-(4-((1-(2-(2,4-dioxotetrahydropyrimidin-1(2H)-yl)-1,3-dioxoisoindolin-4-yl)piperidin-4-yl)methyl)piperazin-1-yl)-5-(3-hydroxypyrrolidin-1-yl)oxazolo[4,5-b]pyridin-6-yl)-2-(2-methylpyridin-4-yl) oxazole-4-carboxamide]: the inhibition at 0.01 µM was in the range of 45 to 50% in assay [1] and 20 to 25% in assay [2]. Besides, the inhibition at 0.5 µM in assay [1] fell in the range of 80 to 100%; in assay [3], 25 to 30%. The “Degradation … (substrate protein remaining %)” value in assay [4] is reported as “A (0%≤substrate protein remaining %≤80%)”.

The values above are taken from patent US20260364184A1, “COMPOUND BASED ON OXOISOINDOLINYL-SUBSTITUTED TETRAHYDROPYRIMIDINE-DIONE AND USE THEREOF” (GLUETACS THERAPEUTICS (SHANGHAI) CO., LTD., priority 2023, published 2026).
